From patent US12660819B2, “Herbicidal derivatives” (SYNGENTA CROP PROTECTION AG, priority 2020, dated 2026)

Assays:
Format in all cases: in vivo
[1] = test system: Abutilon theophrasti (ABUTH); assay: Post-emergence Test (glasshouse, percentage damage to the plant); conditions: post-emergence spray, 1000 g/ha unless otherwise stated, evaluated after 13 days
Procedure, shortened: (§1)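 Rate 1000 g/ha unless stated otherwise. Vehicle: acetone/water 50:50 with 0.5% Tween 20, diluted into aqueous spray. Timing: spray after sowing, read 13 days later. Score: 5=81-100%, 4=61-80%, 3=41-60%, 2=21-40%, 1=0-20% damage.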

[2] = test system: Amaranthus retoflexus (AMARE); assay: as above; conditions: post-emergence spray, 1000 g/ha unless otherwise stated, evaluated after 13 days
Procedure, shortened: as §1

[3] = test system: Echinochloa crus-galli (ECHCG); assay: as above; conditions: post-emergence spray, 1000 g/ha unless otherwise stated, evaluated after 13 days
Procedure, shortened: as §1

[4] = test system: Ipomoea hederacea (IPOHE); assay: as above; conditions: post-emergence spray, 1000 g/ha unless otherwise stated, evaluated after 13 days
Procedure, shortened: (§2)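 Sown pots; spray 1000 g/ha (unless stated) in acetone/water 50:50 + 0.5% Tween 20; glasshouse 24/16 °C, 14 h light, 65% RH; watered twice daily; % damage read at 13 days, scored 1–5.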

Setaria faberi (SETFA) [5] = assay: as above; conditions: post-emergence spray, 1000 g/ha unless otherwise stated, evaluated after 13 days
Procedure, shortened: as §2

Zea mays (ZEAMX) [6] = assay: as above; conditions: post-emergence spray, 1000 g/ha unless otherwise stated, evaluated after 13 days
Procedure, shortened: as §2

[7] = test system: Amaranthus retoflexus (AMARE); assay: Pre-emergence Test (glasshouse, percentage damage to the plant); conditions: 1000 g/ha unless otherwise stated, five-point scale
Setaria faberi (SETFA) [8] = assay: as above; conditions: 1000 g/ha unless otherwise stated, five-point scale
[9] = test system: Echinochloa crus-galli (ECHCG); assay: as above; conditions: 1000 g/ha unless otherwise stated, five-point scale
[10] = test system: Ipomoea hederacea (IPOHE); assay: as above; conditions: 1000 g/ha unless otherwise stated, five-point scale
[11] = test system: Abutilon theophrasti (ABUTH); assay: as above; conditions: 1000 g/ha unless otherwise stated, five-point scale
Zea mays (ZEAMX) [12] = assay: as above; conditions: 1000 g/ha unless otherwise stated, five-point scale

Compound	Post-emergence Test ABUTH, percentage damage to the plant (five-point scale) [1]	Post-emergence Test AMARE, percentage damage to the plant (five-point scale) [2]	Post-emergence Test ECHCG, percentage damage to the plant (five-point scale) [3]	Post-emergence Test IPOHE, percentage damage to the plant (five-point scale) [4]	Post-emergence Test SETFA, percentage damage to the plant (five-point scale) (Setaria faberi (SETFA) [5])	Post-emergence Test ZEAMX, percentage damage to the plant (five-point scale) (Zea mays (ZEAMX) [6])	percentage damage to the plant, AMARE [7]	percentage damage to the plant, SETFA (Setaria faberi (SETFA) [8])	percentage damage to the plant, ECHCG [9]	percentage damage to the plant, IPOHE [10]	percentage damage to the plant, ABUTH [11]	percentage damage to the plant, ZEAMX (Zea mays (ZEAMX) [12])
CCn1c(C)c(-c2ccc(C(=O)N(C)C)cc2)c(=O)c(C(=O)O)c1-c1ccc(Cl)c(Cl)c1 [Compound 109, 2-(3,4-dichlorophenyl)-5-[4-(dimethylcarbamoyl)phenyl]-1-ethyl-6-methyl-4-oxo-pyridine-3-carboxylic acid]	3 (3=41-60%)	1 (1=0-20%)	2 (2=21-40%)	4 (4=61-80%)	3 (3=41-60%)	1 (1=0-20%)	1 (1=0-20%)	4 (4=61-80%)	1 (1=0-20%)	1 (1=0-20%)	1 (1=0-20%)	1 (1=0-20%)
CCn1c(C)c(-c2cccc(OCC(F)(F)F)c2)c(=O)c(C(=O)O)c1-c1ccc(Cl)c(Cl)c1 [Compound 110, 2-(3,4-dichlorophenyl)-1-ethyl-6-methyl-4-oxo-5-[3-(2,2,2-trifluoroethoxy)phenyl] pyridine-3-carboxylic acid]	1 (1=0-20%)	1 (1=0-20%)	1 (1=0-20%)	1 (1=0-20%)	1 (1=0-20%)	1 (1=0-20%)	1 (1=0-20%)	1 (1=0-20%)	1 (1=0-20%)	1 (1=0-20%)	1 (1=0-20%)	1 (1=0-20%)
CCn1c(C)c(-c2ccc(COC)cc2)c(=O)c(C(=O)O)c1-c1ccc(Cl)c(Cl)c1 [Compound 111, 2-(3,4-dichlorophenyl)-1-ethyl-5-[4-(methoxymethyl)phenyl]-6-methyl-4-oxo-pyridine-3-carboxylic acid]	4 (4=61-80%)	2 (2=21-40%)	3 (3=41-60%)	2 (2=21-40%)	4 (4=61-80%)	2 (2=21-40%)	1 (1=0-20%)	5 (5=81-100%)	4 (4=61-80%)	1 (1=0-20%)	2 (2=21-40%)	3 (3=41-60%)
CCn1c(C)c(-c2cccc(C(C)=O)c2)c(=O)c(C(=O)O)c1-c1ccc(Cl)c(Cl)c1 [Compound 112, 5-(3-acetylphenyl)-2-(3,4-dichlorophenyl)-1-ethyl-6-methyl-4-oxo-pyridine-3-carboxylic acid]	3 (3=41-60%)	2 (2=21-40%)	3 (3=41-60%)	2 (2=21-40%)	4 (4=61-80%)	1 (1=0-20%)	1 (1=0-20%)	4 (4=61-80%)	1 (1=0-20%)	1 (1=0-20%)	2 (2=21-40%)	1 (1=0-20%)
CCn1c(C)c(-c2cccc(OC)n2)c(=O)c(C(=O)O)c1-c1ccc(Cl)c(Cl)c1 [Compound 113, 2-(3,4-dichlorophenyl)-1-ethyl-5-(6-methoxy-2-pyridyl)-6-methyl-4-oxo-pyridine-3-carboxylic acid]	4 (4=61-80%)	3 (3=41-60%)	3 (3=41-60%)	2 (2=21-40%)	4 (4=61-80%)	2 (2=21-40%)	1 (1=0-20%)	4 (4=61-80%)	1 (1=0-20%)	2 (2=21-40%)	3 (3=41-60%)	2 (2=21-40%)
CCn1c(C)c(-c2cccc(SC)c2)c(=O)c(C(=O)O)c1-c1ccc(Cl)c(Cl)c1 [Compound 114, 2-(3,4-dichlorophenyl)-1-ethyl-6-methyl-5-(3-methylsulfanylphenyl)-4-oxo-pyridine-3-carboxylic acid]	1 (1=0-20%)	1 (1=0-20%)	1 (1=0-20%)	1 (1=0-20%)	1 (1=0-20%)	1 (1=0-20%)	1 (1=0-20%)	1 (1=0-20%)	1 (1=0-20%)	1 (1=0-20%)	1 (1=0-20%)	1 (1=0-20%)
CCn1c(C)c(-c2ccc(Cl)cc2)c(=O)c(C(=O)O)c1-c1ccc(F)c(F)c1 [Compound 128, 5-(4-chlorophenyl)-2-(3,4-difluorophenyl)-1-ethyl-6-methyl-4-oxo-pyridine-3-carboxylic acid]	4 (4=61-80%)	3 (3=41-60%)	3 (3=41-60%)	2 (2=21-40%)	4 (4=61-80%)	3 (3=41-60%)	4 (4=61-80%)	5 (5=81-100%)	2 (2=21-40%)	1 (1=0-20%)	3 (3=41-60%)	2 (2=21-40%)
CCn1c(C)c(-c2ccc(Cl)cc2)c(=O)c(C(=O)O)c1-c1ccc(Br)c(F)c1 [Compound 129, 2-(4-bromo-3-fluoro-phenyl)-5-(4-chlorophenyl)-1-ethyl-6-methyl-4-oxo-pyridine-3-carboxylic acid]	3 (3=41-60%)	3 (3=41-60%)	2 (2=21-40%)	3 (3=41-60%)	3 (3=41-60%)	2 (2=21-40%)	5 (5=81-100%)	5 (5=81-100%)	2 (2=21-40%)	2 (2=21-40%)	2 (2=21-40%)	1 (1=0-20%)
